Results on five compounds are retold here after US9421211B2, “N,N′-diarylurea compounds and N,N′-diarylthiourea compounds as inhibitors of translation initiation” (President and Fellows of Harvard College, priority 2009, dated 2016).

The test system of data set [1] is eIF2.GTP.Met-tRNAi ternary complex. Nature of the data set: Ternary complex assay: dual luciferase F-luc/R-luc ratio in KLN-tTA/pBISA-DL(ATF-4) cells (HTS screen, 96-well hit confirmation, dose response). In kind it is cell-based, mouse. Particulars: siRNA to PKR, PERK, GCN2; also CRL-2813 cells. An excerpt: For assay development, a bi-directional plasmid was designed in which a common promoter/enhancer complex drives the transcription of firefly luciferase (F-luc) ORF fused to the 5′ untranslated region (UTR) of ATF-4, and of the renilla luciferase (R-luc) ORF fused to a 90-nucleotide 5′ UTR derived from the plasmid (FIG. 6A). Because the tetracycline-regulated transactivator ((tTA), required for driving transcription from this vector) is not normally expressed in the mammalian cells, stable KLN cancer cells were constructed that expressed tTA (KLN-tTA).
The KLN-tTA colonies that drove expression of reporter genes from pBISA-DL plasmid were selected by transient transfection and dual luciferase assay. One of these KLN-tTA cell lines was transfected with the pBISA-DL^(ATF-4) expression vector, stable colonies were selected by dual luciferase assay and expanded. To determine if reduced availability of the eIF2.GTP.Met-tRNAi ternary complex increased the translation of firefly luciferase and decreased translation of renilla luciferase, selected KLN-tTA/pBISA-DL^(ATF-4) colonies were treated with thapsigargin (TG) or tunicamycin (TU), two agents known to cause phosphorylation of eIF2α.
This assay was then adapted for high throughput screening in 96 and 384 well plates. This was done by evaluating the cell density, length of exposure to compounds, DMSO tolerance and optimum firefly and renilla substrate. We then challenged these cells with thapsigargin or DMSO. […] Cell-based assays usually have higher variation than homogeneous in vitro assays due to position effect in the plate, and other variables associated with handling of cells and the plates.
Screening was conducted in 384 well white opaque plates (Nalge Nunc), 100 μl volume RPMI+10% fetal bovine serum. Cells were plated at the sub-confluent density of 10,000 cells/well, and allowed to attach for a period of 16-18 hours at 37° C., 5% CO2. Compounds were added as 1 μl of a 1 mM DMSO stock solution for a final screening concentration of […] using low-volume tips for transfer (Molecular Bioproducts). Cells were then incubated in the presence of compound for an additional sixteen hours, again at 37° C., 5% CO2. Following incubation 70 μl of the culture medium was removed from each well to allow for reagent addition and plates were allowed to equilibrate to room temperature for thirty minutes. Firefly luciferase reporter activity was then read by the addition of thirty microliters of Dual Glo Luciferase reagent (Promega), followed by one hour incubation at room temperature to allow for adequate signal buildup. Luminescence counting was conducted on a Microbeta Trilux using a 1 second read time. Renilla luciferase reporter activity was measured following addition of 30 μl Stop and Glo Luciferase reagent (Promega) and incubation identical to the one carried out for the firefly luciferase one.
Compound scores were interpreted as firefly luciferase activity divided by renilla luciferase activity, normalized to the plate's DMSO control. […] All data analysis was conducted using the BioAssay HTS software package (CambridgeSoft).
102,709 compounds in the NCI Open Chemical Repository were then screened using this HTS assay. […] Initial hits were confirmed by repeating the same dual luciferase assay in 96 well plates. Briefly, 20,000 cells/well were plated in triplicate for each concentration (10, 5 and 2.5 μM) of the compounds.

A further data set has as its system CHOP mRNA. Nature of the data set: Endogenous CHOP mRNA by real-time PCR in KLN-tTA/pBISA-DL(ATF-4) cells. Particulars: siRNA to HRI, also CRL-2813 cells. In kind it is cell-based, mouse. The source says:
(§1) For example, reducing amount of the ternary complex increases translation of ATF-4, which results in elevated expression of CHOP mRNA and protein. Therefore, expression of endogenous CHOP mRNA and CHOP protein in KLN-tTA/pBISA-DL^(ATF-4) cells were utilized as secondary assays to validate N,N′-diarylurea compounds as modifiers of the eIF2.GTP.Met-tRNAi ternary complex. […] To rule out the possibility that the activity of N,N′-diarylurea compounds was confined to a single cell type, the effects of these compounds on the ternary complex assay and the expression of CHOP mRNA was assayed in CRL-2351, PC-3, CRL-2813 human breast, prostate, and melanoma cancer cell lines respectively. For the reporter gene assay, the three human cell lines were co-transfected with tTA expression vector and the pBISA-DL^(ATF-4) dual luciferase expression vector shown in FIG. 6. […] The expression of CHOP mRNA was assayed by real time PCR in the same cell lines treated with 5 or 20 μM of each compound.
Real time PCR: For real time PCR, total RNA was extracted with TaqMan Gene Expression Cells-to-Ct™ Kit (Applied Biosystems, Branchburg, N.J.) according to manufacturer's protocol. Contaminating DNA was removed by DNase I treatment. […] To calibrate the results, all the transcripts quantities were normalized to 18S rRNA (was 18S ribosomal RNA-like mRNA in mouse). […]
(In general: Quantitative PCR measures a nucleic acid by following its amplification.)

A further data set has as its system eIF2α. The experiment in a line: Phosphorylation of eIF2α in cells by Western blot (KLN-tTA/pBISA-DL(ATF-4), PC-3, CRL-2813). Format: cell-based, mouse; human. The settings on record: CRL-2813, HRI siRNA. The source says:
The amount of the eIF2.GTP.Met-tRNAi complex can be reduced by phosphorylation of eIF2α, reduced expression of Met-tRNAi, or eIF2α phosphorylation independent reduction in the activity of eIF2B, the eIF2 guanine nucleotide exchange factor. To determine which of these was the case, the effect of active N,N′-diarylureas on the phosphorylation of eIF2α was studied. […] To determine if the phosphorylation of eIF2α was responsible for reduced amount of the ternary complex in the cells treated with N,N′-diarylurea compounds, previously generated PC-3 human prostate cancer cell lines in which expression of endogenous eIF2α was replaced with recombinant wild type (WT) or non-phosphorylatable eIF2α-S51A were utilized.
Western blotting: Cell extracts were separated by SDS-PAGE and probed with anti-phosphoserine-51-eIF2 cc (PS51-eIF2α), anti-total eIF2α-specific antibodies […] (Biosource International, Hopkinton, Mass.), anti-CHOP, or anti β-actin (Santa Cruz Biotechnology, CA) as described.
(In general: A western blot detects proteins with antibodies after separation by electrophoresis.)

For data set [2], the target named is T1, HRI (Oryctolagus cuniculus, UniProt P33279).
T1 construct: from tissue; host or cells: rabbit reticulocyte lysate, heme supplemented
The experiment in a line: Phosphorylation of eIF2α in heme-supplemented rabbit reticulocyte lysate. In kind it is biochemical. The settings on record: 30 minutes at 37° C. The method, then: (§2) FIGS. 14A and 14B depict that N,N′-diarylurea compounds activate HRI in cell free lysates. A and B) Heme supplemented rabbit reticulocyte (a) or in-house prepared human melanoma cancer cell lysates (b) were incubated with the indicated concentration of compound 1781 for 30 minutes at 37° C. and phosphorylation of eIF2α was determined by Western blot analysis.
(§3) Compound #1781 was added to lysates of CRL-2813 cells or heme-supplemented rabbit reticulocytes and phosphorylation of eIF2α by Western blot was determined.

Data set [3] has as its target T2, HRI (Homo sapiens, UniProt Q9BQI3).
T2 construct: endogenous in cells; host or cells: CRL-2813 human melanoma cells (lysate prepared in house)
The experiment in a line: Phosphorylation of eIF2α in CRL-2813 human melanoma cell lysate. Particulars: CRL-2813 cell lysate, 30 minutes at 37° C. Format: biochemical. The method, then:
as §2, §3

Data set [4] in a line: In vivo toxicity, seven day administration to mice. The method, then:
Five female nude mice each were treated with 200 mg/kg, 100 mg/kg #1781 in 15 μl DMSO or 15 μl DMSO daily for seven days. Mice were observed daily for signs of toxicity and weighed every other day for total of 15 days and then necropsy was performed. The average body of each group is plotted against the time.
To study toxicity effects, mice were treated with various doses of compound #1781 or vehicle.

In data set [5] the test system is eIF2.GTP.Met-tRNAi ternary complex. Nature of the data set: ATF-4 assay (firefly/renilla luciferase ratio) in CRL-2351 cell line. Format: cell-based, human.
Description: as §1
Stable and transient transfection: Cells were seeded at the density of 10^5 in 60-mm (stable transfection) or 10^4 cells per well of 96-well plate (transient transfection) plates and transfected one day later using the Qiagen Transfectamine transfection kit. For selection of stable cell lines, transfected cells were transferred to 100-mm plates and selected with appropriate antibiotics.
Dual luciferase assay: Cells or minced tumors expressing firefly and renilla luciferases were lysed and the extracts assayed with a glow type dual luciferase assay kit, per manufacturer's instruction (Promega Inc., Madison, Wis.).

Data set [6] deals with KLN mouse squamous cell carcinoma cells. The experiment in a line: Cell proliferation SRB assay, KLN. Format: cell-based. The method, then: (§4) Reduced availability of the ternary complex causes inhibition of translation initiation and thereby of cell proliferation. […] The effects of N,N′-diarylureas on the proliferation KLN mouse squamous cell carcinoma, CRL-2351 human breast, CRL-2813 human melanoma, A549 human lung and PC-3 human prostate cancer cell lines were tested.
(§5) Cell Growth Assay: Cell Growth was Measured by the SRB Assay.
(In general: In SRB staining, fixed cells bind dye roughly in proportion to their protein.)

Data set [7] concerns CRL-2813 human melanoma cells. Nature of the data set: Cell proliferation SRB assay, CRL-2813. Format: cell-based. The method, then: Reduced availability of the ternary complex causes inhibition of translation initiation and thereby of cell proliferation. […] The effects of N,N′-diarylureas on the proliferation KLN mouse squamous cell carcinoma, CRL-2351 human breast, CRL-2813 human melanoma, A549 human lung and PC-3 human prostate cancer cell lines were tested. […]
as §5

The test system of data set [8] is CRL-2351 human breast cancer cells. The experiment in a line: Cell proliferation SRB assay, CRL-2351. Format: cell-based. Particulars: Homo sapiens. The method, then:
as §4, §5

Data set [9] is described as follows: Solubility observed at purification. In kind it is physicochemical. The settings on record: solvents tried for purification. The method, then: Because it could not be purified, this compound was removed from the structure-activity relationship (SAR) study.
As another non-limiting example, 3,4-dichlorophenylisocyanate (250 mg, 1.330 mmol) and 2-amino-4-hydroxy-6-methylpyrimidine (166 mg, 1.330 mmol) were used following the general procedure E to synthesize 28.

The subject of data set [10] is PC-3 human prostate cancer cells. Nature of the data set: Cell proliferation SRB assay, PC-3. Format: cell-based. Particulars: read-out: IC50 (μM), concentration that inhibits cell proliferation by 50%. The method, then: as §4
To determine if N,N′-diarylureas inhibit cell proliferation by reducing the availability of the ternary complex, the effect of N,N′-diarylureas on proliferation of previously described transgenic PC-3 human prostate cancer cell lines expressing either the non-phosphorylatable eIF2α-S51A mutant or the eIF2α-WT was studied. […] Reducing the expression of HRI, the eIF2α kinase that mediates N,N′-diarylurea induced phosphorylation of eIF2α similarly abrogates the effect of these agents on cell proliferation (FIGS. 15C and 15D).
as §5

Data set [11] relates to A549 human lung cancer cells. Nature of the data set: Cell proliferation SRB assay, A549. In kind it is cell-based. The settings on record: read-out: IC50 (μM), concentration that inhibits cell proliferation by 50%. The method, then:
as §4, §5

The mark [12] stands for this setting: KLN, read-out: IC50 (μM), concentration that inhibits cell proliferation by 50%.
The mark [13] stands for this setting: CRL2813, CRL-2813, read-out: IC50 (μM), concentration that inhibits cell proliferation by 50%.
Where [14] appears, read: CRL-2351, read-out: IC50 (μM), concentration that inhibits cell proliferation by 50%.

The structures appear in SMILES notation. Like-named read-outs stand apart in the source and are kept apart here.

T2 sequence (Q9BQI3 whole entry): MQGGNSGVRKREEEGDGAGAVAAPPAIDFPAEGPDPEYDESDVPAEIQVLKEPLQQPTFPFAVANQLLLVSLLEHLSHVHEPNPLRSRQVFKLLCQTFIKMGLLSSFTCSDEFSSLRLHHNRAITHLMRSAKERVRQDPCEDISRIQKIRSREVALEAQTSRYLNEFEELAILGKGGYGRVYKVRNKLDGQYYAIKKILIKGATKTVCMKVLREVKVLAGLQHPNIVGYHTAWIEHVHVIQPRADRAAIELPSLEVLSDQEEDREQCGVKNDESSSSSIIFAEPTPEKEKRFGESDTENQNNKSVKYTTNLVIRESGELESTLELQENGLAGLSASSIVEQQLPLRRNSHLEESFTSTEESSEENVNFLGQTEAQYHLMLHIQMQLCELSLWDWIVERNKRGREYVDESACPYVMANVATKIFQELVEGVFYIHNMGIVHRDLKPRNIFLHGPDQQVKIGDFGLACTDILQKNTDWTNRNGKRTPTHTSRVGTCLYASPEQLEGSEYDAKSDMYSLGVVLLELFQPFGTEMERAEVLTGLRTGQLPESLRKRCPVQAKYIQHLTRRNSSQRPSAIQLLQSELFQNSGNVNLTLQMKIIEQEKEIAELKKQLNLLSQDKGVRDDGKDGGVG
T1 sequence (P33279 whole entry): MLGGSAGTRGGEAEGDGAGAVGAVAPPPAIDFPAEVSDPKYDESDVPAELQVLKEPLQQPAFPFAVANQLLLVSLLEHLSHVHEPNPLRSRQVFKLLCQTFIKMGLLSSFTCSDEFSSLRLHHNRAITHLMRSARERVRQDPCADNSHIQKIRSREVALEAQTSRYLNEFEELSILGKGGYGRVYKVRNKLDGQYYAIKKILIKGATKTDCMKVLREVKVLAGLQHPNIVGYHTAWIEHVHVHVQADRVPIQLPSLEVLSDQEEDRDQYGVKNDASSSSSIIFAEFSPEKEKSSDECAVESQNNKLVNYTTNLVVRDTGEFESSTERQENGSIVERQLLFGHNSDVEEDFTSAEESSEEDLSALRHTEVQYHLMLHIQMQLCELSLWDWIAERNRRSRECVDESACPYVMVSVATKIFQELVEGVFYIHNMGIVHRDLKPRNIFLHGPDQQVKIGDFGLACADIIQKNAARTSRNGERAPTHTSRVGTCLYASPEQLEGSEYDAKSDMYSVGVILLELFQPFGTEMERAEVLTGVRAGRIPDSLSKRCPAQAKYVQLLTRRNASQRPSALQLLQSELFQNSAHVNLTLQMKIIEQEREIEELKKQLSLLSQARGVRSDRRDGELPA

As to `O=C(Nc1ccc(Cl)c(Cl)c1)Nc1ccc2nnsc2c1` [#1781], the “Induction of F-luc/R-luc ratio by the compound after knocking down PKR, PERK or GCN2” value in data set [1] is reported as “no effect”. Further, the “Induction of CHOP mRNA by the compound after knocking down HRI” value with CHOP mRNA is “abrogated”. Further, the “Induction of eIF2α phosphorylation by the compound after silencing of HRI” value in the data set on eIF2α is on record as “reduced”. The “Phosphorylation of eIF2α in cell lysates” value on HRI [2] and at HRI [3] was “caused phosphorylation of eIF2α” each time. In addition, the “Effect on weight gain or food consumption of mice” value in data set [4] (seven consecutive days, up to 200 mg/kg) is given as “no adverse effect”.

With `O=C(Nc1cc(C(F)(F)F)cc(C(F)(F)F)c1)Nc1ncccc1O` [Compound 28], the maximal fold induction in data set [5] (Homo sapiens, read-out: ATF-4 Amax: maximal activity, ratio of firefly over renilla luciferase expression) was 5. Further, the EC (activity threshold of 5) in data set [5] (Homo sapiens, read-out: ATF-4 C[5] (μM): concentration corresponding to an activity threshold of 5) was 40 µM. Further, the Cmax in [5] (read-out: ATF-4 Cmax (μM): concentration corresponding to the maximal activity) was 40 µM. Besides, the IC50 in [6] (KLN cells, read-out: IC50 (μM) by SRB assay, KLN) came out at 15 µM; in data set [7] (CRL2813, 2813 cells, read-out: IC50 (μM) by SRB assay, 2813) it was 0.7 µM; in data set [8] (2351 cells, read-out: IC50 (μM) by SRB assay, 2351), 0.7 µM. The Solubility result in data set [9] is “not soluble in any solvent”.

Take `O=C(Nc1ccc(Cl)c(C(F)(F)F)c1)Nc1ccc2nnsc2c1` [Compound 1780]: the IC50 came out at 0.9 µM in [10]; 14.8 µM in data set [6] (setting [12]); 0.1 µM in data set [7] (setting [13]); 1.3 µM in [8] (setting [14]); 0.8 µM in data set [11].

Consider `O=C(Nc1ccc(Cl)c(Cl)c1)Nc1ccc2nnsc2c1` [Compound 1781], for which the IC50 in [10] came to 1.1 µM; in data set [6] (setting [12]), 17.1 µM; in data set [7] (setting [13]) it was 0.5 µM; in data set [8] (setting [14]), 3 µM; in data set [11], 1.2 µM. Moreover, in [4] (female nude mice, 100 or 200 mg/kg daily for seven days, observed 15 days), the In vivo toxicity entry is given as “no apparent in vivo toxicity”.

On to `O=C(Nc1ccc(Cl)cc1)Nc1ccc2nonc2c1` [KM094748], for which the IC50 in [10] was found to be 1.4 µM; in data set [6] (setting [12]) it was 8.5 µM; in data set [7] (setting [13]) it was 0.3 µM; in [8] (setting [14]), 0.1 µM; in [11] it was 1.3 µM.
